{
  "source": "PubChem BioAssay (NCI)",
  "assay_in_all_cases": "DTP human tumour cell line panel, 48 h",
  "key": {"[1]": {"system": "IGROV1 ovarian"}, "[2]": {"system": "SK-MEL-28 melanoma"}, "[3]": {"system": "NCI-H522 lung"}, "[4]": {"system": "HOP-18 NSCLC"}, "[5]": {"system": "CAKI-1 renal"}, "[6]": {"system": "786-0 renal"}, "[7]": {"system": "A549 NSCLC"}, "[8]": {"system": "LXFL 529 NSCLC"}, "[9]": {"system": "NCI-H226 lung"}, "[10]": {"system": "SNB-75 CNS"}, "[11]": {"system": "HCT-116 colon"}, "[12]": {"system": "HT29 colon"}, "[13]": {"system": "MALME-3M melanoma"}, "[14]": {"system": "EKVX NSCLC"}, "[15]": {"system": "A498 renal"}, "[16]": {"system": "OVCAR-4 ovarian"}, "[17]": {"system": "SF-268 CNS"}, "[18]": {"system": "TK-10 renal"}, "[19]": {"system": "XF 498 CNS"}, "[20]": {"system": "SNB-19 CNS"}, "[21]": {"system": "NCI-H460 lung"}, "[22]": {"system": "SK-MEL-2 melanoma"}, "[23]": {"system": "SF-295 CNS"}, "[24]": {"system": "KM12 colon"}, "[25]": {"system": "OVCAR-5 ovarian"}, "[26]": {"system": "COLO 205 colon"}, "[27]": {"system": "M19-MEL melanoma"}, "[28]": {"system": "OVCAR-8 ovarian"}, "[29]": {"system": "LOX IMVI melanoma"}, "[30]": {"system": "DMS 114 small cell lung"}, "[31]": {"system": "RXF-631 renal"}, "[32]": {"system": "HOP-62 NSCLC"}, "[33]": {"system": "OVCAR-3 ovarian"}, "[34]": {"system": "SF-539 CNS"}, "[35]": {"system": "UACC-257 melanoma"}, "[36]": {"system": "HOP-92 NSCLC"}, "[37]": {"system": "SW-620 colon"}, "[38]": {"system": "ACHN renal"}, "[39]": {"system": "UACC-62 melanoma"}, "[40]": {"system": "SN12C renal"}, "[41]": {"system": "K-562 leukemia"}, "[42]": {"system": "M14 melanoma"}, "[43]": {"system": "RPMI-8226 leukemia"}, "[44]": {"system": "SK-MEL-5 melanoma"}, "[45]": {"system": "NCI-H23 lung"}, "[46]": {"system": "HCC-2998 colon"}, "[47]": {"system": "DLD-1 colon"}, "[48]": {"system": "SNB-78 CNS"}, "[49]": {"system": "SK-OV-3 ovarian"}, "[50]": {"system": "UO-31 renal"}, "[51]": {"system": "U251 CNS"}, "[52]": {"system": "DMS 273 small cell lung"}, "[53]": {"system": "CCRF-CEM leukemia"}, "[54]": {"system": "MOLT-4 leukemia"}},
  "note": "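All cell lines were grown in 96-well plates and treated with compound for 48 hours. TGI denotes the concentration required for complete inhibition of growth.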",
  "data": [
    {"smiles": "Cn1cnc([N+](=O)[O-])c1Sc1nnnn1-c1ccccc1", "values": [
      {"measurement": "TGI", "setting": "[1]", "result": 33.7, "unit": "µM"},
      {"measurement": "TGI", "setting": "[2]", "result": 28.6, "unit": "µM"},
      {"measurement": "TGI", "setting": "[3]", "result": 7.35, "unit": "µM"},
      {"measurement": "TGI", "setting": "[4]", "result": 8.26, "unit": "µM"},
      {"measurement": "TGI", "setting": "[5]", "result": 30.1, "unit": "µM"},
      {"measurement": "TGI", "setting": "[6]", "result": 30.5, "unit": "µM"},
      {"measurement": "TGI", "setting": "[7]", "result": 62.9, "unit": "µM"},
      {"measurement": "TGI", "setting": "[8]", "result": 15.4, "unit": "µM"},
      {"measurement": "TGI", "setting": "[9]", "result": 36.3, "unit": "µM"},
      {"measurement": "TGI", "setting": "[10]", "result": 31, "unit": "µM"},
      {"measurement": "TGI", "setting": "[11]", "result": 23.4, "unit": "µM"},
      {"measurement": "TGI", "setting": "[12]", "result": 31.9, "unit": "µM"},
      {"measurement": "TGI", "setting": "[13]", "result": 21.3, "unit": "µM"},
      {"measurement": "TGI", "setting": "[14]", "result": 29.6, "unit": "µM"},
      {"measurement": "TGI", "setting": "[15]", "result": 38.9, "unit": "µM"},
      {"measurement": "TGI", "setting": "[16]", "result": 22.2, "unit": "µM"},
      {"measurement": "TGI", "setting": "[17]", "result": 39.4, "unit": "µM"},
      {"measurement": "TGI", "setting": "[18]", "result": 32.4, "unit": "µM"},
      {"measurement": "TGI", "setting": "[19]", "result": 24.6, "unit": "µM"},
      {"measurement": "TGI", "setting": "[20]", "result": "> 100", "unit": "µM"},
      {"measurement": "TGI", "setting": "[21]", "result": 33.5, "unit": "µM"},
      {"measurement": "TGI", "setting": "[22]", "result": 29.5, "unit": "µM"},
      {"measurement": "TGI", "setting": "[23]", "result": 39.7, "unit": "µM"},
      {"measurement": "TGI", "setting": "[24]", "result": 35.2, "unit": "µM"},
      {"measurement": "TGI", "setting": "[25]", "result": 31.7, "unit": "µM"},
      {"measurement": "TGI", "setting": "[26]", "result": 20.7, "unit": "µM"},
      {"measurement": "TGI", "setting": "[27]", "result": 24.4, "unit": "µM"},
      {"measurement": "TGI", "setting": "[28]", "result": 27.9, "unit": "µM"},
      {"measurement": "TGI", "setting": "[29]", "result": 19.1, "unit": "µM"},
      {"measurement": "TGI", "setting": "[30]", "result": 33, "unit": "µM"},
      {"measurement": "TGI", "setting": "[31]", "result": 30.6, "unit": "µM"},
      {"measurement": "TGI", "setting": "[32]", "result": "> 100", "unit": "µM"},
      {"measurement": "TGI", "setting": "[33]", "result": 26.6, "unit": "µM"},
      {"measurement": "TGI", "setting": "[34]", "result": 24.9, "unit": "µM"},
      {"measurement": "TGI", "setting": "[35]", "result": 27.6, "unit": "µM"},
      {"measurement": "TGI", "setting": "[36]", "result": 13, "unit": "µM"},
      {"measurement": "TGI", "setting": "[37]", "result": 20.2, "unit": "µM"},
      {"measurement": "TGI", "setting": "[38]", "result": 27, "unit": "µM"},
      {"measurement": "TGI", "setting": "[39]", "result": 27.4, "unit": "µM"},
      {"measurement": "TGI", "setting": "[40]", "result": 29.7, "unit": "µM"},
      {"measurement": "TGI", "setting": "[41]", "result": 19.9, "unit": "µM"},
      {"measurement": "TGI", "setting": "[42]", "result": 23.7, "unit": "µM"},
      {"measurement": "TGI", "setting": "[43]", "result": 52.6, "unit": "µM"},
      {"measurement": "TGI", "setting": "[44]", "result": 29.9, "unit": "µM"},
      {"measurement": "TGI", "setting": "[45]", "result": 34.7, "unit": "µM"},
      {"measurement": "TGI", "setting": "[46]", "result": 32.5, "unit": "µM"},
      {"measurement": "TGI", "setting": "[47]", "result": 22.1, "unit": "µM"},
      {"measurement": "TGI", "setting": "[48]", "result": 34.2, "unit": "µM"},
      {"measurement": "TGI", "setting": "[49]", "result": "> 100", "unit": "µM"},
      {"measurement": "TGI", "setting": "[50]", "result": 27.9, "unit": "µM"},
      {"measurement": "TGI", "setting": "[51]", "result": 26, "unit": "µM"},
      {"measurement": "TGI", "setting": "[52]", "result": 29, "unit": "µM"},
      {"measurement": "TGI", "setting": "[53]", "result": 7.12, "unit": "µM"},
      {"measurement": "TGI", "setting": "[54]", "result": 6.22, "unit": "µM"}
    ]}
  ]
}
